How the values were obtained:
Assay in all cases: Post-emergence herbicidal glasshouse test, percentage damage to the plant
Format in all cases: in vivo
Solanum nigrum (SOLNI) = tested on: Solanum nigrum (SOLNI)
Experimental: (§1) Seeds of a variety of test species are sown in standard soil in pots:—Solanum nigrum (SOLNI), Amaranthus retoflexus (AMARE), Setaria faberi (SETFA), Alopecurus myosuroides (ALOMY), Echinochloa crus-galli (ECHCG), Ipomoea hederacea (IPOHE). After 8 days cultivation (post-emergence) under controlled conditions in a glasshouse (at 24/16° C., day/night; 14 hours light; 65% humidity), the plants are sprayed with an aqueous spray solution derived from the formulation of the technical active ingredient in acetone/water (50:50) solution containing 0.5% Tween 20 (polyoxyethelyene sorbitan monolaurate, CAS RN 9005-64-5). Compounds are applied at 1000 g/ha. The test plants are then grown in a glasshouse under controlled conditions in a glasshouse (at 24/16° C., day/night; 14 hours light; 65% humidity) and watered twice daily. After 13 days, the test is evaluated for the percentage damage caused to the plant. The biological activities are shown in the following table on a five point scale (5=80-100%; 4=60-79%; 3=40-59%; 2=20-39%; 1=0-19%). A comparative experiment is conducted to compare the biological efficacy of a compound of the present invention with those of WO 2011/045271. The test is performed as outlined above using the following compounds. Three different application rates are employed (250 g/ha, 500 g/ha and 1000 g/ha).

[1] = tested on: Alopecurus myosuroides (ALOMY)
Experimental: as §1

[2] = tested on: Amaranthus retoflexus (AMARE)
Experimental: as §1

Setaria faberi (SETFA) = tested on: Setaria faberi (SETFA)
Experimental: as §1

[3] = tested on: Ipomoea hederacea (IPOHE)
Experimental: as §1

[4] = tested on: Echinochloa crus-galli (ECHCG)
Experimental: as §1

[5] = comparative experiment, rate 250 g/ha
[6] = comparative experiment, rate 500 g/ha
[7] = comparative experiment, rate 1000 g/ha
[8] = post-emergence, 1000 g/ha, evaluated after 13 days

| SMILES | POST Application SOLNI, percentage damage (five point scale) (Solanum nigrum (SOLNI); [8]) | POST Application ALOMY, percentage damage (five point scale) [1, 8] | POST Application AMARE, percentage damage (five point scale) [2, 8] | POST Application SETFA, percentage damage (five point scale) (Setaria faberi (SETFA); [8]) | POST Application IPOHE, percentage damage (five point scale) [3, 8] | POST Application ECHCG, percentage damage (five point scale) [4, 8] | other results |
| --- | --- | --- | --- | --- | --- | --- | --- |
| CC1=NN(C)C(=O)C(n2nc(C(F)(F)F)cc2C)C1=O (stereo not drawn) [Compound A, reference compound] | – | – | – | – | – | – | POST Application SOLNI, percentage damage (five point scale) (Solanum nigrum (SOLNI); [5]): 3 (3=40-59%); POST Application SOLNI, percentage damage (five point scale) (Solanum nigrum (SOLNI); [6]): 4 (4=60-79%); POST Application SOLNI, percentage damage (five point scale) (Solanum nigrum (SOLNI); [7]): 5 (5=80-100%); POST Application ALOMY, percentage damage (five point scale) [1, 5]: 1 (1=0-19%); POST Application ALOMY, percentage damage (five point scale) [1, 6]: 1 (1=0-19%); POST Application ALOMY, percentage damage (five point scale) [1, 7]: 2 (2=20-39%); POST Application AMARE, percentage damage (five point scale) [2, 5]: 3 (3=40-59%); POST Application AMARE, percentage damage (five point scale) [2, 6]: 4 (4=60-79%); POST Application AMARE, percentage damage (five point scale) [2, 7]: 4 (4=60-79%); POST Application SETFA, percentage damage (five point scale) (Setaria faberi (SETFA); [5]): 1 (1=0-19%); POST Application SETFA, percentage damage (five point scale) (Setaria faberi (SETFA); [6]): 1 (1=0-19%); POST Application SETFA, percentage damage (five point scale) (Setaria faberi (SETFA); [7]): 2 (2=20-39%); POST Application IPOHE, percentage damage (five point scale) [3, 5]: 4 (4=60-79%); POST Application IPOHE, percentage damage (five point scale) [3, 6]: 5 (5=80-100%); POST Application IPOHE, percentage damage (five point scale) [3, 7]: 5 (5=80-100%); POST Application ECHCG, percentage damage (five point scale) [4, 5]: 1 (1=0-19%); POST Application ECHCG, percentage damage (five point scale) [4, 6]: 2 (2=20-39%); POST Application ECHCG, percentage damage (five point scale) [4, 7]: 3 (3=40-59%) |
| CCOC1=NN(C)C(=O)C(n2c(Cl)c(Cl)c3ccccc32)C1=O (stereo not drawn) [Compound 2.023] | 4 (4=60-79%) | 1 (1=0-19%) | 2 (2=20-39%) | 1 (1=0-19%) | 4 (4=60-79%) | 1 (1=0-19%) | – |
| CC1=NN(C)C(=O)C(n2cc(Cl)c3ccccc32)C1=O (stereo not drawn) [Compound 1.027] | 5 (5=80-100%) | 1 (1=0-19%) | 4 (4=60-79%) | 1 (1=0-19%) | 4 (4=60-79%) | 3 (3=40-59%) | – |
| CC1=NN(C)C(=O)C(n2c(Cl)c(Cl)c3ccc(Cl)cc32)C1=O (stereo not drawn) [Compound 1.020] | 5 (5=80-100%) | 1 (1=0-19%) | 5 (5=80-100%) | 1 (1=0-19%) | 5 (5=80-100%) | 4 (4=60-79%) | – |
| C=C(C)C1=NN(C)C(=O)C(n2c(Cl)c(Cl)c3ccccc32)C1=O (stereo not drawn) [Compound 2.016] | 4 (4=60-79%) | 1 (1=0-19%) | 4 (4=60-79%) | 1 (1=0-19%) | 2 (2=20-39%) | 1 (1=0-19%) | – |
| Cc1nn(C)c(=O)c(-n2c(Cl)c(Cl)c3ccccc32)c1OC(=O)c1ccc([N+](=O)[O-])cc1 [Compound 3.009] | 5 (5=80-100%) | 1 (1=0-19%) | 5 (5=80-100%) | 1 (1=0-19%) | 5 (5=80-100%) | 1 (1=0-19%) | – |
| CN1N=C(C#N)C(=O)C(n2c(Cl)c(Cl)c3ccccc32)C1=O (stereo not drawn) [Compound 2.001] | 5 (5=80-100%) | 1 (1=0-19%) | 3 (3=40-59%) | 2 (2=20-39%) | 5 (5=80-100%) | 2 (2=20-39%) | – |
| CN1N=CC(=O)C(n2cc(Cl)c3ccccc32)C1=O (stereo not drawn) [Compound 1.012, 4-(3-Chloro-indol-1-yl)-2-methyl-2H-pyridazine-3,5-dione] | 5 (5=80-100%) | 1 (1=0-19%) | 5 (5=80-100%) | 5 (5=80-100%) | 5 (5=80-100%) | 2 (2=20-39%) | – |
| CN1N=C(C(F)F)C(=O)C(n2c(Cl)c(Cl)c3ccccc32)C1=O (stereo not drawn) [Compound 2.002] | 5 (5=80-100%) | 1 (1=0-19%) | 5 (5=80-100%) | 1 (1=0-19%) | 5 (5=80-100%) | 1 (1=0-19%) | – |
| COCCOCC1=NN(C)C(=O)C(n2c(Cl)c(Cl)c3ccccc32)C1=O (stereo not drawn) [Compound 2.015] | 4 (4=60-79%) | 1 (1=0-19%) | 2 (2=20-39%) | 1 (1=0-19%) | 5 (5=80-100%) | 1 (1=0-19%) | – |
| Cc1nn(C)c(=O)c(-n2c(Cl)c(Cl)c3ccccc32)c1OC(=O)N1CCOCC1 [Compound 3.002] | 5 (5=80-100%) | 1 (1=0-19%) | 2 (2=20-39%) | 1 (1=0-19%) | 5 (5=80-100%) | 1 (1=0-19%) | – |
| Cc1cn(C2C(=O)C=NN(C)C2=O)c2ccccc12 (stereo not drawn) [Compound 1.007] | 5 (5=80-100%) | 1 (1=0-19%) | 2 (2=20-39%) | 1 (1=0-19%) | 1 (1=0-19%) | 1 (1=0-19%) | – |
| CC1=NN(C)C(=O)C(n2c(Br)c(Cl)c3ccccc32)C1=O (stereo not drawn) [Compound 1.026] | 5 (5=80-100%) | 2 (2=20-39%) | 5 (5=80-100%) | 3 (3=40-59%) | 5 (5=80-100%) | 4 (4=60-79%) | – |
| CC1=NN(C)C(=O)C(n2c(Br)c(Br)c3ccc(Br)cc32)C1=O (stereo not drawn) [Compound 1.023] | 5 (5=80-100%) | 2 (2=20-39%) | 5 (5=80-100%) | 1 (1=0-19%) | 5 (5=80-100%) | 3 (3=40-59%) | – |
| CC(C)OCC1=NN(C)C(=O)C(n2c(Cl)c(Cl)c3ccccc32)C1=O (stereo not drawn) [Compound 2.014] | 4 (4=60-79%) | 1 (1=0-19%) | 2 (2=20-39%) | 1 (1=0-19%) | 5 (5=80-100%) | 1 (1=0-19%) | – |

— patent US9049864B2, “Pyridazinone herbicidal compounds” (Syngenta Limited, priority 2012, dated 2015)
